In patent US4309559A, “Sulphonamides useful as pesticides” (FBC Limited, priority 1977, dated 1982):

Experiments:
[1] = tested on: cucumber powdery mildew Erysiphe cichoracearum; assay: Cucumber powdery mildew control on cucumber plants; format: in vivo; conditions: 2000 mg per liter; soil and leaves; 14 days; controls less than 5%
[2] = tested on: Crabgrass (Digitaria sanguinalis); assay: Pre-emergence soil surface spray, crabgrass; format: in vivo; conditions: soil surface spray 2.8 kg/ha, 21 days, 0=no effect, 100=complete kill
Description: (§1) Seeds of the plant species listed below were sown in John Innes I potting compost in aluminium pans, 19 cm long×9.5 cm wide×5.0 cm high, one species per pan. The soil surface was then sprayed with a compound listed below, formulated as a solution in 1:1 by volume aqueous acetone except for the compound of Example 44 which was formulated as an aqueous suspension containing 1000 parts per million of the wetting agent Lissapol NX (nonylphenol/ethylene oxide condensate). Each compound was applied at a rate of 2.8 kg of active ingredient per hectare in 450 liters of spray liquid per hectare. The pans were then watered, and placed in a controlled environment room (22° C., relative humidity 65-85%, 14 hours per day artificial illumination at 17,000 lux) for 21 days. The plants were then visually assessed for any growth regulatory or herbicidal effects. All differences from an untreated control were scored on a scale from 0-100, where 0 signifies no effect and 100 signifies complete kill.

Mustard (Sinapis alba) [3] = assay: Soil incorporation (attaclay/sand dust), growth regulatory or herbicidal effects, mustard; format: in vivo; conditions: 504 h, soil incorporation 26 ppm, 21 days, 0=no effect, 100=complete kill, read-out: growth regulatory or herbicidal effect score
Procedure, shortened: (§2)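 Active ingredient formulated as attaclay/sand dust and mixed into John Innes I potting compost at 26 or 130 ppm w/v (about 11.2 or 56 kg a.i./ha cultivated to 5 cm). Seeds sown in treated soil, grown 21 days at 22° C, 65-85% RH, 14 h light at 13,000 lux; visual score 0-100 versus untreated control.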

Oat (Avena sativa) = assay: Post-emergence foliar spray, herbicidal/growth regulant response, oat; format: in vivo; conditions: 168 h, foliar spray 11.2 kg/ha, 7 days, 0=no effect, 100=complete kill, read-out: herbicidal or growth regulant response index
Experimental: (§3) Seeds of the plant species listed below were sown in anodised aluminium pans, 19 cm long×9.5 cm wide×5 cm deep, containing John Innes I potting compost. They were then watered and placed in a controlled environment room (22° C.; 65-85% relative humidity; 14 hours per day artificial illumination at 13,000 lux). Fourteen days after sowing, the seedlings received a foliar spray of a compound listed below, formulated as a solution in 1:1 by volume aqueous acetone. The concentration of active ingredient and volume of application were adjusted so as to be equivalent to a rate of 11.2 kg/ha in 450 liters per hectare. After seven days growth in the controlled environment room, the plants were visually assessed for any herbicidal or growth regulant response. All differences from the untreated control were scored according to an index where 0=no effect and 100=complete kill.
(§4) The product of Example 95 was tested according to the procedure of Examples 49-55.

Mustard (Sinapis alba) [4] = assay: Pre-emergence soil surface spray, mustard; format: in vivo; conditions: soil surface spray 2.8 kg/ha, 21 days, 0=no effect, 100=complete kill
Description: as §1

[5] = tested on: Blackgrass (Alopecurus myosuroides); assay: Pre-emergence soil surface spray, blackgrass; format: in vivo; conditions: soil surface spray 2.8 kg/ha, 21 days, 0=no effect, 100=complete kill
Description: as §1

[6] = tested on: Linseed (Linum usitatissimum); assay: Soil incorporation (attaclay/sand dust), growth regulatory or herbicidal effects, linseed; format: in vivo; conditions: 504 h, soil incorporation 26 ppm, 21 days, 0=no effect, 100=complete kill, read-out: growth regulatory or herbicidal effect score
Procedure, shortened: as §2

[7] = tested on: Ryegrass (Lolium perenne); assay: Soil incorporation (attaclay/sand dust), growth regulatory or herbicidal effects, ryegrass; format: in vivo; conditions: 504 h, soil incorporation 26 ppm, 21 days, 0=no effect, 100=complete kill, read-out: growth regulatory or herbicidal effect score
Procedure, shortened: as §2

Cotton (Gossypium sp.) = assay: Pre-emergence soil surface spray, cotton; format: in vivo; conditions: soil surface spray 2.8 kg/ha, 21 days, 0=no effect, 100=complete kill
Description: as §1

[8] = tested on: French beans (Phaseolus vulgaris); assay: Post-emergence foliar spray, herbicidal/growth regulant response, French beans; format: in vivo; conditions: foliar spray 11.2 kg/ha, 7 days, 0=no effect, 100=complete kill
Experimental: as §3, §4

[9] = tested on: Sugarbeet (Beta vulgaris); assay: Post-emergence foliar spray, herbicidal/growth regulant response, sugarbeet; format: in vivo; conditions: 168 h, foliar spray 11.2 kg/ha, 7 days, 0=no effect, 100=complete kill, read-out: herbicidal or growth regulant response index
Experimental: as §3, §4

Oats (Avena sativa) = assay: Soil incorporation (attaclay/sand dust), growth regulatory or herbicidal effects, oats; format: in vivo; conditions: 504 h, soil incorporation 26 ppm, 21 days, 0=no effect, 100=complete kill, read-out: growth regulatory or herbicidal effect score
Procedure, shortened: as §2

[10] = tested on: Ryegrass (Lolium perenne); assay: Post-emergence foliar spray, herbicidal/growth regulant response, ryegrass; format: in vivo; conditions: 168 h, foliar spray 11.2 kg/ha, 7 days, 0=no effect, 100=complete kill, read-out: herbicidal or growth regulant response index
Experimental: as §3, §4

[11] = tested on: Tomato (Lycopersicon esculentum); assay: Pre-emergence soil surface spray, tomato; format: in vivo; conditions: soil surface spray 2.8 kg/ha, 21 days, 0=no effect, 100=complete kill
Description: as §1

[12] = tested on: Chickweed (Stellaria media); assay: Pre-emergence soil surface spray, chickweed; format: in vivo; conditions: soil surface spray 2.8 kg/ha, 21 days, 0=no effect, 100=complete kill
Description: as §1

Peas (Pisum sativum) [13] = assay: Soil incorporation (attaclay/sand dust), growth regulatory or herbicidal effects, peas; format: in vivo; conditions: Lathyrus oleraceus, 504 h, soil incorporation 26 ppm, 21 days, 0=no effect, 100=complete kill, read-out: growth regulatory or herbicidal effect score
Procedure, shortened: as §2

[14] = tested on: Barnyardgrass (Echinochloa crus-galli); assay: Pre-emergence soil surface spray, barnyardgrass; format: in vivo; conditions: soil surface spray 2.8 kg/ha, 21 days, 0=no effect, 100=complete kill
Description: as §1

Maize (Zea mays) = assay: Soil incorporation (attaclay/sand dust), growth regulatory or herbicidal effects, maize; format: in vivo; conditions: 504 h, soil incorporation 26 ppm, 21 days, 0=no effect, 100=complete kill, read-out: growth regulatory or herbicidal effect score
Procedure, shortened: as §2

[15] = tested on: Fathen (Chenopodium album); assay: Pre-emergence soil surface spray, fathen; format: in vivo; conditions: soil surface spray 2.8 kg/ha, 21 days, 0=no effect, 100=complete kill
Description: as §1

Wild Oat (Avena fatua) = assay: Pre-emergence soil surface spray, wild oat; format: in vivo; conditions: soil surface spray 2.8 kg/ha, 21 days, 0=no effect, 100=complete kill
Description: as §1

Peas (Pisum sativum) [16] = assay: Post-emergence foliar spray, herbicidal/growth regulant response, peas; format: in vivo; conditions: Lathyrus oleraceus, 168 h, foliar spray 11.2 kg/ha, 7 days, 0=no effect, 100=complete kill, read-out: herbicidal or growth regulant response index
Experimental: as §3, §4

Mustard (Sinapis alba) [17] = assay: Post-emergence foliar spray, herbicidal/growth regulant response, mustard; format: in vivo; conditions: 168 h, foliar spray 11.2 kg/ha, 7 days, 0=no effect, 100=complete kill, read-out: herbicidal or growth regulant response index
Experimental: as §3, §4

Barley (Hordeum vulgare) = assay: Pre-emergence soil surface spray, barley; format: in vivo; conditions: soil surface spray 2.8 kg/ha, 21 days, 0=no effect, 100=complete kill
Description: as §1

Carrot (Daucus carota) = assay: Pre-emergence soil surface spray, carrot; format: in vivo; conditions: soil surface spray 2.8 kg/ha, 21 days, 0=no effect, 100=complete kill
Description: as §1

[18] = tested on: Linseed (Linum usitatissimum); assay: Post-emergence foliar spray, herbicidal/growth regulant response, linseed; format: in vivo; conditions: 168 h, foliar spray 11.2 kg/ha, 7 days, 0=no effect, 100=complete kill, read-out: herbicidal or growth regulant response index
Experimental: as §3, §4

[19] = tested on: Wheat (Triticum aestivum); assay: Pre-emergence soil surface spray, wheat; format: in vivo; conditions: soil surface spray 2.8 kg/ha, 21 days, 0=no effect, 100=complete kill
Description: as §1

Xanthomonas malvacearum = assay: Bacterial growth in dextrose nutrient broth; format: cell-based; conditions: 200 ppm weight/volume; 8 days incubation at 25° C.
Experimental: A 1% suspension/solution of the product of Example 157 in polyethylene glycol (Carbowax 400) was added to a dextrose nutrient broth to give a concentration of 1,000 parts per million (ppm) weight/volume of medium. Dilution in test tubes was then carried out to give a concentration of 200 ppm weight/volume of medium. To 8 ml quantities of broth was added 0.2 ml of a dense broth culture of the bacterium causing black arm of cotton, Xanthomonas malvacearum. After 8 days incubation at 25° C., all the broth specimens were examined for signs of bacterial growth.

Structure (SMILES)	growth regulatory or herbicidal effect score [2]	pest or weed control at 26 µg/mL (Mustard (Sinapis alba) [3])	plant injury at 11200 g/ha (Oat (Avena sativa))	growth regulatory or herbicidal effect score (Mustard (Sinapis alba) [4])	growth regulatory or herbicidal effect score [5]	pest or weed control at 26 µg/mL [6]	pest or weed control at 26 µg/mL [7]	growth regulatory or herbicidal effect score (Cotton (Gossypium sp.))	herbicidal or growth regulant response index [8]	plant injury at 11200 g/ha [9]	plant injury at 26 µg/mL (Oats (Avena sativa))	pest or weed control at 11200 g/ha [10]	growth regulatory or herbicidal effect score [11]	growth regulatory or herbicidal effect score [12]	pest or weed control at 26 µg/mL (Peas (Pisum sativum) [13])	growth regulatory or herbicidal effect score [14]	plant injury at 26 µg/mL (Maize (Zea mays))	growth regulatory or herbicidal effect score [15]	growth regulatory or herbicidal effect score (Wild Oat (Avena fatua))	pest or weed control at 11200 g/ha (Peas (Pisum sativum) [16])	further results
CCOC(=O)C(C)N(c1c(C)cccc1C)S(C)(=O)=O (stereo not shown) [Example 15]	100	100%	5%	10	20	70%	100%	0	70	90%	20%	10%	20	30	0%	40	50%	100	5	5%	fungus control, cucumber powdery mildew [1]: 82%; pest or weed control at 11200 g/ha (Mustard (Sinapis alba) [17]): 90%; growth regulatory or herbicidal effect score (Barley (Hordeum vulgare)): 0; growth regulatory or herbicidal effect score (Carrot (Daucus carota)): 0; pest or weed control at 11200 g/ha [18]: 90%; growth regulatory or herbicidal effect score [19]: 0
CS(=O)(=O)N(CC(N)=S)c1cccc(Cl)c1Cl [Example 157]																					bacterial growth (Xanthomonas malvacearum): No growth occurred
CCOC(=O)C(C)N(c1c(C)cccc1Cl)S(C)(=O)=O (stereo not shown) [Example 22]	90	100%	5%	90	40	100%	90%	0	80	80%	50%	5%	40	50	0%	0	50%	100	0	5%	pest or weed control at 11200 g/ha (Mustard (Sinapis alba) [17]): 80%; growth regulatory or herbicidal effect score (Barley (Hordeum vulgare)): 0; growth regulatory or herbicidal effect score (Carrot (Daucus carota)): 0; pest or weed control at 11200 g/ha [18]: 30%; growth regulatory or herbicidal effect score [19]: 0
